According to patent publication US11446516B2, “Methods of increasing response to cancer radiation therapy” (THE TRUSTEES OF THE UNIVERSITY OF PENNSYLVANIA, priority 2013, dated 2022):
Entries after “also recorded” stand apart in the source; their conditions may differ. Read-outs that look alike come from different tables or passages of the source. Where a SMILES comes first, the peptide text is derived from it. The star is where a group is joined. Cbz = O=C(OCc1ccccc1)*

What was measured:
[1] = tested on: Akt, MAPK, GSK3-β, snail, slug, KLF4 in SK-BR-3 cells; test: Western blot of erbB downstream signaling and Snail/Slug, SK-BR-3; format: cell-based, human
[2] = tested on: Akt, MAPK, snail in MDA-MB-453 cells; test: Western blot of signaling and snail, MDA-MB-453; format: cell-based; conditions: 24 hours (FIG. 20B)
[3] = tested on: BT-474 cells; test: MTT cell viability assay, BT-474; format: cell-based; conditions: FIG. 43, FIG. 48
[4] = tested on: H2N113 tumors; format: in vivo
[5] = tested on: SK-BR-3 cells; test: Soft agar growth (foci formation) assay, SK-BR-3; format: cell-based, human; conditions: 14 days in soft agar, ImageJ
[6] = tested on: MCF10A cells; test: MTT cell viability assay, MCF10A; format: cell-based; conditions: 8 days
[7] = tested on: MDA-MB-231 cells; test: MTT cell viability assay, MDA-MB-231; format: cell-based; conditions: FIG. 43 / FIG. 55C
[8] = tested on: H2N113 (IFNγR KD) tumors; test: Implanted H2N113 (IFNγR KD) tumor growth in MMTV-neu mice; format: in vivo, mouse; conditions: suboptimal 7.16.4 1.5 mg/kg; IFN-γ 5×10^5 IU/kg (FIG. 33)
[9] = tested on: class I and class II MHC antigens in SKBR3 cells; test: MHC expression in SKBR3 cells by FACS; format: cell-based, human; conditions: FIG. 4
[10] = tested on: MDSC; test: In vitro MDSC migration assay (Transwell, H2N113 conditioned medium); format: cell-based, mouse; conditions: H2N113 treated 3 days (FIG. 9)
[11] = tested on: H2N113 cells; test: Cytotoxicity assay of spleen CD8+ T cells from treated mice; format: in vivo, mouse; conditions: suboptimal mAb and IFN-γ (FIG. 52)
[12] = tested on: PD-L1; test: PD-L1 expression in treated tumors; format: in vivo, mouse; conditions: FIG. 60A
Protocol: FIG. 60A-FIG. 60C. PD-L1 expression is increased in tumors treated with IFN-γ. FIG. 60A—Western blotting was performed with anti-PD-L1 antibody with the tumors from each indicated group of mice after treatment in the same way as FIG. 59A. FIG. 60B—FACS analysis of PD-L1 expression in tumor cells from control IgG and 7.16.4+IFN-γ treated mice. Tumor cells are gated as CD45-large size cells which we confirmed most of them are tumor cells by 7.16.4 antibody. **P<0.02. FIG. 60C—Administration of anti-PD-L1 antibody with the ordered therapy. Mice were treated with control PBS, 7.16.4 (1.5 mg/kg, three times per week) and anti-PDL1 (5 mg/kg, twice per week), 7.16.4 and IFN-γ ([…], three times per week), or the combination of IFN-γ, 7.16.4 and anti-PD-L1. Data represent mean+SEM.
This is also consistent with why IFN-γ alone is not useful for cancer therapy (Zaidi and Merlino, 2011). […] It is possible that PD-L1 acts as a negative immune regulator induced by IFN-γ treatment alone. […] To determine if PD-L1 can be further targeted for this ordered therapy, we used anti-PD-L1 antibody along with 7.16.4 and IFN-γ.

[13] = tested on: H2N113 (IFNγR KD) cells; test: IFN-γ response of H2N113 (IFNγR KD) cells in vitro; format: cell-based, mouse
[14] = inhibitor added during final 8 hours of two-day 4D5 and IFN-γ treatment

Question: Which “snail content under 4D5 and IFN-γ co-treatment” value (from here on “snail content”) [1] does the source give for `CCN(CC)CCCC(C)Nc1ccnc2cc(Cl)ccc12` (stereo not shown) [chloroquine] here?
Answer: increased snail content but was unable to rescue

Question: Which Akt pathway activity ([1]; 24 hours (FIG. 20A, 20B)) does the source give for `CS(=O)(=O)CCNCc1ccc(-c2ccc3ncnc(Nc4ccc(OCc5cccc(F)c5)c(Cl)c4)c3c2)o1` [lapatinib, Lapatinib] here?
Answer: inactivated; also recorded: diminished Akt activity in both cell lines

Question: And the slug protein level ([1]; Western blot)?
Answer: not slug

Question: What about the snail protein level ([1]; Western blot) of the same molecule?
Answer: dose-dependent reduction in snail

Question: And the Akt activity [2]?
Answer: diminished Akt activity in both cell lines

Question: And the snail protein level [2]?
Answer: snail is reduced upon lapatinib treatment

Question: With `CC/C(=C(\c1ccc(O)cc1)c1ccc(OCCN(C)C)cc1)c1ccccc1` [4-OH tamoxifen] as the molecule, how does the cell viability [3] read?
Answer: reduced viability in the cIgG-treated cells; also recorded: complemented 4D5 treatment; also recorded: did not further sensitize the cells to IFN-γ in combination with 4D5

Question: `O.O=C(O)C(F)(F)F.O=c1[nH]c2ccccc2n1C1CCN(Cc2ccc(-c3nc4cc5[nH]cnc5cc4nc3-c3ccccc3)cc2)CC1` [Akt1/2 inhibitor] was tested. Which snail protein level ([1]; Western blot) did it give?
Answer: dose-dependent decrease in snail content

Question: IFNα was tested. Which “anti-tumor activity of IFNα on its own” value ([4]; FIG. 7) did it give?
Answer: appears to have anti-tumor activity on its own

Question: And the “enhancement of mAb 7.16.4 activity to suppress tumor growth” value ([4]; IFNα in combination with mAb 7.16.4 (FIG. 7))?
Answer: could not enhance mAb 7.16.4 activity

Question: With `Cc1c[nH]c(-c2cnc(NCCNc3ccc(C#N)cn3)nc2-c2ccc(Cl)cc2Cl)n1` [CHIR99021] as the molecule, how does the “slug content under 4D5 and IFN-γ co-treatment” value [1, 14] read?
Answer: no change in slug content

Question: And the “snail content” value [1, 14]?
Answer: dose-dependent rescue of snail

Question: With `CC(C)C[C@@H](C=O)NC(=O)[C@H](CC(C)C)NC(=O)[C@H](CC(C)C)NC(=O)OCc1ccccc1` [MG-132] (Cbz-Leu-Leu-Leu-aldehyde) as the molecule, how does the “slug content under 4D5 and IFN-γ co-treatment” value [1, 14] read?
Answer: no change in slug content

Question: And the “snail content” value [1, 14]?
Answer: inhibited the co-treatment-mediated reduction of snail in a dose-dependent manner

B1: IFN-γ: recombinant interferon-gamma (SEQ ID NO: 5) (protein)
chain: QDPYVKEAENLKKYFNAGHSDVADNGTLFLGILKNWKEESDRKIMQSQIVSFYFKLFKNFKDDQSIQKSVETIKEDMNVKFFNSNKKKRDDFEKLTNYSVTDLNVQRKAIHELIQVMAELSPAAKTGKRKRSQ
modifications: IFN-gamma
Question: With B1 as the molecule, how does the “percentage of foci greater than 20 pixels” value [5] read?
Answer: 52±8%

Question: And the “percentage of foci less than 20 pixels” value [5]?
Answer: 48±8%

Question: And the cell viability [6]?
Answer: minimal changes to their viability

Question: What about the cell viability [7] of the same molecule?
Answer: did respond to IFN-γ alone

Question: And the GSK3-β activation ([1]; Western blot (FIG. 21A))?
Answer: unable to do so

Question: What about the tumor volumes ([4]; BALB/c mice, 7.16.4 1.5 mg/kg, IFN-γ 5×10^5 IU/kg (FIG. 26)) of the same molecule?
Answer: demonstrable effect

Question: And the tumor growth ([4]; MMTV-neu mice, 7.16.4 1.5 mg/kg twice per week, IFN-γ 5×10^5 IU/kg three times per week (FIG. 1), 1.5 mg/kg)?
Answer: aggressive tumor growth; also recorded: failed to significantly inhibit tumor growth

Question: And the tumor growth [8]?
Answer: no effect on its own

Question: And the “class II MHC antigen expression” value [9]?
Answer: no effect

Question: What about the “MDSC migration induced by H2N113 conditioned medium” value [10] of the same molecule?
Answer: no appreciable effects

Question: What about the “effector CD8+ T cell activity against H2N113 cells” value [11] of the same molecule?
Answer: negligible effects

Question: And the “PD-L1 expression in tumor tissues” value [12]?
Answer: dramatically induced PD-L1 expression

Question: And the “IFN-γ mediated growth suppression” value ([13]; 5 days, LDH activity (FIG. 32C))?
Answer: resistant to IFN-γ mediated growth suppression

Question: And the “IFN-γ induced MHC expression” value ([13]; FIG. 32B)?
Answer: diminished
